Reference: ChEMBL document CHEMBL1125779, “Synthesis and evaluation of some nitrobenzenesulfonamides containing nitroisopropyl and (ureidooxy)methyl groups as novel hypoxic cell selective cytotoxic agents” (J Med Chem, 1991)

Assay: Partition coefficient was measured in n-octanol at the PH 7.4 buffer
Format: physicochemical
Settings: octanol/water

SMILES | Partition coefficient
CN(CCN)S(=O)(=O)c1ccc(C(C)(C)[N+](=O)[O-])c([N+](=O)[O-])c1 | 0.37
CNCCN(C)S(=O)(=O)c1ccc(CONC(N)=O)c([N+](=O)[O-])c1 | 0.28
O=[N+]([O-])c1nccn1CC(O)CN1CCCCC1 (stereo not drawn) [PIMONIDAZOLE] | 0.4
